# Assay results reported in patent US20060093553A1, “Cd26-based therapies for cancers and immune disease” (priority 2002, published 2006).
# What was measured:
# [1] = tested on: HLA-DR expression on monocytes; assay: Surface expression on monocytes (flow cytometry); type: cell-based, Human
# Procedure: (§1) In studies assessing the expression of CD80, CD86, and HLA-DR on purified monocytes (0.5×10^6 monocytes/well), monocytes were preincubated with or without TT (0.5 μg/ml) for 16 h. Following incubation with sCD26 (0.5 μg/ml) for 24 h, FITC-conjugated CD80, CD86, and HLA-DR mAbs (10 μg/ml) were used with PE-conjugated anti-CD14 (10 μg/ml) to gate exclusively on the monocyte population. In experiments assessing the effect of M6P on cellular uptake of sCD26, purified monocytes (0.5×10^6 monocytes/well) were incubated with the appropriate concentration of M6P in the presence or absence of sCD26-OG for 24 h in standard medium. Cells were then washed twice in ice-cold PBS, followed by incubation for 2 min in acidic PBS (pH 3.0) to strip any sCD26-OG attached to the cell surface. Cells were washed in ice-cold PBS and were incubated with mouse Ig isotypes (1 μg/ml) to block nonspecific binding; this was followed by reaction with PE-conjugated anti-CD14 (10 μg/ml) to gate exclusively on monocyte population.
# (§2) Flow cytometric analysis of 10,000 viable cells was conducted on FACSCalibur (BD Biosciences, Mountain View, Calif.). Each experiment was repeated at least three times, and the results were provided in the form of a histogram of a representative experiment, or increased mean percent±SE fluorescent intensity compared with control or untreated cells.
# [2] = tested on: CD86 expression on monocytes; assay: Surface expression on monocytes (flow cytometry); type: cell-based, Human
# Procedure: as §1, §2
# [3] = tested on: CD80 expression on monocytes; assay: Surface expression on monocytes (flow cytometry); type: cell-based, Human
# Procedure: as §1, §2
# [4] = tested on: wtCD26 Jurkat transfectants; assay: MTT uptake (cell growth) assay; type: cell-based, Human
# Procedure: (§3) Cell growth assay was performed as described previously (Hansen et al., 1989). Cells were incubated in microplates in the presence of culture media alone, culture media and […] (50 μg/ml), culture media and doxorubicin at the indicated concentrations, or culture media, […]), and doxorubicin at the indicated concentrations, for a total volume of 100 μl (50,000 cells/well). After 48 h of incubation at 37° C., 25 μl of MTT was added to the wells at a final concentration of 1 mg/ml. The microplates were then incubated for 2 h at 37° C., followed by the addition of 100 μl of extraction buffer. After overnight incubation at 37° C., A570/nm measurements at 570 nm were performed, with the SE of the triplicate wells being less than 15%. MTT Assay. Cell growth assay was performed as described previously (Aytac et al., 2001). […] Following 36-48 h of incubation at 37° C., 25 ul of MET was added to the wells at a final concentration of 1 mg/ml. The microplates were then incubated for 2 h at 37° C., followed by the addition of 100 ul of extraction buffer. Following overnight incubation at 37° C., OD measurements at 570 nm were performed, with the standard errors of the mean of the triplicate wells being less than 15%. Cytotoxicity index was calculated as follows: [formula]
# [5] = tested on: S630A Jurkat transfectants; assay: MTT uptake (cell growth) assay; type: cell-based, Human
# Procedure: as §3
# [6] = tested on: nontransfected control (parental) Jurkat cells; assay: Cell cycle analysis (propidium iodide staining); details: 24 h; for % G0/G1 / % G2/M / % S: Parental Jurkat; for Percentage G0G1 / Percentage G2/M / Percentage S: Control Jurkat
# [7] = tested on: wild-type CD26-transfected Jurkat cell lines (wtCD26); assay: Cell cycle analysis (propidium iodide staining); details: 24 h; for % G0/G1 / % G2/M / % S: wtCD26 transfectant; for Percentage G0G1 / Percentage G2/M / Percentage S: WtCD26 transfectant
# [8] = tested on: 340-4 Jurkat transfectants; assay: Annexin V/PI apoptosis assay; type: cell-based, Human
# Procedure: (§4) Annexin/PI Assays. Exposure of phosphatidylserine residues was quantified by surface annexin V staining as previously described (Vermes et al., 1995; […] and Pollard, 1994; Martin et al., 1995)). Briefly, cells were washed in binding buffer (10 mM HEPES, pH 7.4, 2.5 mM CaCl2, 140 mM NaCl), resuspended in 100 μl and incubated with 0.5 μl/ml annexin V-fluoresencein isothiocyanate (FITC) and 2.5 μg/ml propiodium iodide (PI) for 15 minutes in the dark. Cells were then washed again and resuspended in 400 μl of binding buffer, then flow cytometric analysis (FACScan; Becton Dickinson) was performed. Ten thousand cells were acquired per sample using Cellquest software and data were analyzed with the Paint-a-gate software (Becton Dickinson).
# [9] = tested on: wtCD26 Jurkat transfectants; assay: Annexin V/PI apoptosis assay; type: cell-based, Human
# Procedure: as §4
# [10] = tested on: S630A mutant CD26-positive/DPPIV-negative Jurkat transfectant; assay: Cell cycle analysis (propidium iodide staining); details: 24 h
# [11] = tested on: 340-4 Jurkat transfectants; assay: MTT uptake (cell growth) assay; type: cell-based, Human; details: 340-4 transfectants, similar to wtCD26; 48 h; FIG. 1
# [12] = tested on: 340-4 mutant CD26-positive/DPPIV-positive Jurkat transfectant; assay: Cell cycle analysis (propidium iodide staining); type: cell-based, Human; details: 24 h, 340-4 transfectant
# [13] = tested on: wtCD26 Jurkat transfectant; assay: Immunoblotting of etoposide-induced apoptosis markers after z-LEHD-fmk preincubation; type: cell-based, Human
# Procedure: SDS-PAGE and Immunoblotting. After incubation at 37° C. in culture media and etoposide or doxorubicin at the concentrations and duration indicated, cells were harvested from wells, washed with PBS, and lysed in lysis buffer consisting of 1% NP-40, 0.5% deotxycolate, 0.1% SDS, 1 mM phenyhmethylsulfonyl fluoride, 1 mM benzamidine, 10 μg/ml aprotinin, 50 μg/ml leupeptin, 10 μg/ml soybean trypsin inhibitor and 1 μg/ml pepstatin. After incubating on ice for 5 min, nuclei were removed by centrifugation and supernatants were collected as whole cell lysates. Sample buffer (4×) consisting of 20% glycerol, 4.6% SDS, 0.5 M Tris (pH 6.8), 4% β-mercaptoethanol, and 0.2% bromophenol blue was added to the appropriate aliquots of supernatants. After boiling, protein samples were submitted to SDS-PAGE analysis on an 8% gel under standard conditions using a mini-Protean II system (Bio-Rad). For immunoblotting, the proteins were transferred onto nitrocellulobse (Immobilon-P; Millipore). After overnight. blocking at 4° C. in blocking solution consisting of 0.1% Tween 20 and 5% BSA in Tris-buffered saline, membranes were blotted with the appropriate primary antibodies diluted in blocking solution for 1 hour at room temperature. Membranes were then washed with blocking solution, and appropriate secondary antibodies diluted in blocking solution were then applied for 1 hour at room temperature. Secondary antibodies were goat antimouse or goat antirabbit horseradish peroxidase conjugates (Dako). Membranes were then washed with blocking solution, and proteins were subsequently detected by chemiluininescence (Amersham Pharmacia Biotech).
# M6P/IGF-IIR on monocytes = target: T1, M6P/IGF-IIR on monocytes (Homo sapiens, UniProt P11717); assay: Inhibition of sCD26 uptake into monocytes by M6P (FACS); type: cell-based; details: M6P 0, 0.1, 1.0, and 10 μM; concentration dependent; with or without TT; FIGS. 11A, 11B
# T1 construct: endogenous in cells; host or cells: purified peripheral blood monocytes
# T1 sequence (P11717 41-2491): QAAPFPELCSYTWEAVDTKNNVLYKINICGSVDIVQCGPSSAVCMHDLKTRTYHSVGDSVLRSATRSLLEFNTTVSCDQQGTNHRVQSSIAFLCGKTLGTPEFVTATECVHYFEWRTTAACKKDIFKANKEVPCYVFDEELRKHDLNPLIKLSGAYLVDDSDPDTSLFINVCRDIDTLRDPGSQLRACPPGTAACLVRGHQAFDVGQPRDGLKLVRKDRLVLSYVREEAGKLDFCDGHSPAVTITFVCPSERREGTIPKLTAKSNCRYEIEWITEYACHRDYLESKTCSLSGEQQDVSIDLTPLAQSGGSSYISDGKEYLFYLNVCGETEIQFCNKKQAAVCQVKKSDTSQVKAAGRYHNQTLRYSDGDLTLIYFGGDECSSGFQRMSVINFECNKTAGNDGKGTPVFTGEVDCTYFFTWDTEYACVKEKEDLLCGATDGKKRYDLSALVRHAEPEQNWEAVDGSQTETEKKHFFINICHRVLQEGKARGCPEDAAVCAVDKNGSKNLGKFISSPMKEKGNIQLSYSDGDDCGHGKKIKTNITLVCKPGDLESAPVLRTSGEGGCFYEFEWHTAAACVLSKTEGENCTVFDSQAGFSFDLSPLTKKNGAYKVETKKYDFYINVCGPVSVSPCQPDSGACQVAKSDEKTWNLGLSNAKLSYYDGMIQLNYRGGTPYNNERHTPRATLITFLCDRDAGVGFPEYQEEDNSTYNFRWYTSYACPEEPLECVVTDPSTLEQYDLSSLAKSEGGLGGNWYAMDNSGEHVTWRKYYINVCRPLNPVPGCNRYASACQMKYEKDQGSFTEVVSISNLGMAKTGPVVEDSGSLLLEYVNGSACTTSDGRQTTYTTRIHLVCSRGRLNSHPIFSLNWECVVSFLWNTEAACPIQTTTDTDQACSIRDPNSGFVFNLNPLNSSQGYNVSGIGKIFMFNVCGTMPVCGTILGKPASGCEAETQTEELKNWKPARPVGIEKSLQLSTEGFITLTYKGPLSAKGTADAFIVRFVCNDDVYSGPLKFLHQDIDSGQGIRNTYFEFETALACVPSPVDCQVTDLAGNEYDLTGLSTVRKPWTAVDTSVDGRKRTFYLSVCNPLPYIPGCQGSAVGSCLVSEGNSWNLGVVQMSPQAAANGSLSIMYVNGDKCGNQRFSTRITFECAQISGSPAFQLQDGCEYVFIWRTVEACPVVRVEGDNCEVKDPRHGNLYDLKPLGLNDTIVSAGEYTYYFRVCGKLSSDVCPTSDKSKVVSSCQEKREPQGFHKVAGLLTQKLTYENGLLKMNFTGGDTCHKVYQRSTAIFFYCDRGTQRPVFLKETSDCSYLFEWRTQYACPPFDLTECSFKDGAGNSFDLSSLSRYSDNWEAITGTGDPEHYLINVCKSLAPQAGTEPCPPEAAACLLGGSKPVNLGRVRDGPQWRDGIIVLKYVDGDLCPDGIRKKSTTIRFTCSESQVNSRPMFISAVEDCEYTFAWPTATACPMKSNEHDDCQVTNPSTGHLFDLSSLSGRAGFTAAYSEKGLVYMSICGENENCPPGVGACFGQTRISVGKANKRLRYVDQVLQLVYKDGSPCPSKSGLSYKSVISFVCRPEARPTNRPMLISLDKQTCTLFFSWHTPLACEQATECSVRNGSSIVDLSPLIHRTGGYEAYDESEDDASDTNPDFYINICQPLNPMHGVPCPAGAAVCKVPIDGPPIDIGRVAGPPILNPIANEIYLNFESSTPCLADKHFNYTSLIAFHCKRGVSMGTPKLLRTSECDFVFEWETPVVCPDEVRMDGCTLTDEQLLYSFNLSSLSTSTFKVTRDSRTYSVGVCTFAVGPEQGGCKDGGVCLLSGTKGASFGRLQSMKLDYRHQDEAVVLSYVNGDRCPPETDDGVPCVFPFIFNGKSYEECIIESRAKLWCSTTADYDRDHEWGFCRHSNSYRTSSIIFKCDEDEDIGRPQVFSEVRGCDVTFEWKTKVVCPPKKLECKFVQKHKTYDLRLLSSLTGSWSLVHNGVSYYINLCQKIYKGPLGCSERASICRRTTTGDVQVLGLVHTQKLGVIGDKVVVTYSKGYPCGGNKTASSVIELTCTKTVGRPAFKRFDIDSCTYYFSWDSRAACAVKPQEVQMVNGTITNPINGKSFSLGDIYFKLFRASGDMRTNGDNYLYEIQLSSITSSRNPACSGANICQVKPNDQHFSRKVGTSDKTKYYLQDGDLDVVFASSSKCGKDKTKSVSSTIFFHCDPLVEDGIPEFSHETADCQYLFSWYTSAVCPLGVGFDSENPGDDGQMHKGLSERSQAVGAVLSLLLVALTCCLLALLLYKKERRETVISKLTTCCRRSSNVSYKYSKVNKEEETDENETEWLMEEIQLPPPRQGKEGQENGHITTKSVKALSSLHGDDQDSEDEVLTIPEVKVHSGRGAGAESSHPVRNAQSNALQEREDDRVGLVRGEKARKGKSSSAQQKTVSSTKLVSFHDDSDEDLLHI
# Procedure: as §1
# [14] = AIM V serum-free media, Etoposide 0.25 uM
# [15] = AIM V serum-free media, Etoposide 0.50 uM
# [16] = Etoposide 0.10 uM, S630A transfectant
# [17] = Etoposide 0.25 uM, S630A transfectant
# [18] = AIM V serum-free media, Doxorubicin 0.10 uM
# [19] = AIM V serum-free media, Doxorubicin 0.25 uM
# [20] = Doxorubicin 0.01 μM, S63A transfectant
# [21] = Doxorubicin 0.05 μM, S630A transfectant
# [22] = 2 hours preincubation with z-LEHD-fmk, then 3 μM etoposide 48 hours, FIG. 22B
molecule,measurement,setting,value
TT: recall antigen tetanus toxoid,% Increase of HLA-DR expression on monocytes,[1],0.3 ± 0.2%
same,% Increase of CD86 expression on monocytes,[2],1.2 ± 2%
same,% Increase of CD80 expression on monocytes,[3],2.0 ± 0.4%
COc1cc([C@@H]2c3cc4c(cc3[C@@H](O[C@@H]3O[C@@H]5CO[C@@H](C)O[C@H]5[C@H](O)[C@H]3O)[C@H]3COC(=O)[C@H]23)OCO4)cc(OC)c1O [Etoposide],"etoposide-mediated growth inhibition (MTT), sensitivity","[4]; wtCD26 compared to parental cells, FIG. 5",significantly increased sensitivity
same,"etoposide-mediated growth inhibition (MTT), sensitivity","[5]; S630A compared to wtCD26 transfectants, FIG. 5",less sensitive
same,% G0/G1,[6]; [14],51%
same,% G2/M,[6]; [14],19%
same,% S,[6]; [14],30%
same,% G0/G1,[6]; [15],36%
same,% G2/M,[6]; [15],36%
same,% S,[6]; [15],28%
same,% G0/G1,[6]; Etoposide 0.10 uM,41%
same,% G2/M,[6]; Etoposide 0.10 uM,21%
same,% S,[6]; Etoposide 0.10 uM,38%
same,% G0/G1,[6]; Etoposide 0.25 uM,27%
same,% G2/M,[6]; Etoposide 0.25 uM,41%
same,% S,[6]; Etoposide 0.25 uM,32%
same,% G0/G1,[7]; [14],34%
same,% G2/M,[7]; [14],43%
same,% S,[7]; [14],23%
same,% G0/G1,[7]; [15],18%
same,% G2/M,[7]; [15],64%
same,% S,[7]; [15],18%
same,% G0/G1,[7]; Etoposide 0.10 uM,25%
same,% G2/M,[7]; Etoposide 0.10 uM,56%
same,% S,[7]; Etoposide 0.10 uM,19%
same,% G0/G1,[7]; Etoposide 0.25 uM,12%
same,% G2/M,[7]; Etoposide 0.25 uM,69%
same,% S,[7]; Etoposide 0.25 uM,19%
same,etoposide-induced apoptosis (Annexin V/PI),"[8]; 340-4 transfectants, similar to wtCD26, 14 hours, FIG. 15A",higher level of drug-induced apoptosis
same,etoposide-induced apoptosis (Annexin V/PI),"[9]; wtCD26 vs S630A or parental control Jurkat, 14 hours, FIG. 15A",more sensitive to the apoptotic effect
same,% G0/G1,[10]; [16],34%
same,% G2/M,[10]; [16],29%
same,% S,[10]; [16],37%
same,% G0/G1,[10]; [17],22%
same,% G2/M,[10]; [17],48%
same,% S,[10]; [17],30%
COc1cccc2c1C(=O)c1c(O)c3c(c(O)c1C2=O)C[C@@](O)(C(=O)CO)C[C@@H]3O[C@H]1C[C@H](N)[C@H](O)[C@H](C)O1 [Doxorubicin],"doxorubicin-mediated growth inhibition (MTT), sensitivity",[11],greater doxorubicin sensitivity
same,"doxorubicin-mediated growth inhibition (MTT), sensitivity","[4]; wtCD26 compared with parental (control) or vector only (neo) Jurkat cells, 48 h, FIG. 1",markedly increased sensitivity
same,"doxorubicin-mediated growth inhibition (MTT), sensitivity","[5]; S630A transfectants, 48 h, FIG. 1",less sensitive
same,% G0/G1,[6]; [18],43%
same,% G2/M,[6]; [18],27%
same,% S,[6]; [18],30%
same,% G0/G1,[6]; [19],36%
same,% G2/M,[6]; [19],41%
same,% S,[6]; [19],23%
same,Percentage G0G1,[6]; Doxorubicin 0.01 μM,40%
same,Percentage G2/M,[6]; Doxorubicin 0.01 μM,34%
same,Percentage S,[6]; Doxorubicin 0.01 μM,26%
same,Percentage G0G1,[6]; Doxorubicin 0.05 μM,32%
same,Percentage G2/M,[6]; Doxorubicin 0.05 μM,37%
same,Percentage S,[6]; Doxorubicin 0.05 μM,31%
same,% G0/G1,[7]; [18],31%
same,% G2/M,[7]; [18],49%
same,% S,[7]; [18],20%
same,% G0/G1,[7]; [19],14%
same,% G2/M,[7]; [19],74%
same,% S,[7]; [19],12%
same,Percentage G0G1,[7]; Doxorubicin 0.01 μM,11%
same,Percentage G2/M,[7]; Doxorubicin 0.01 μM,62%
same,Percentage S,[7]; Doxorubicin 0.01 μM,27%
same,Percentage G0G1,[7]; Doxorubicin 0.05 μM,6%
same,Percentage G2/M,[7]; Doxorubicin 0.05 μM,69%
same,Percentage S,[7]; Doxorubicin 0.05 μM,25%
same,doxorubicin-induced apoptosis (Annexin V/PI),"[8]; 340-4 compared with parental or S630A Jurkat, 16 hours, FIG. 15B",greater apoptosis
same,doxorubicin-induced apoptosis (Annexin V/PI),"[9]; wtCD26 compared with parental or S630A Jurkat, 16 hours, FIG. 15B",greater apoptosis
same,Percentage G0G1,[12]; Doxorubicin 0.01 μM,25%
same,Percentage G2/M,[12]; Doxorubicin 0.01 μM,50%
same,Percentage S,[12]; Doxorubicin 0.01 μM,25%
same,Percentage G0G1,[12]; Doxorubicin 0.05 μM,11%
same,Percentage G2/M,[12]; Doxorubicin 0.05 μM,78%
same,Percentage S,[12]; Doxorubicin 0.05 μM,11%
same,Percentage G0G1,[10]; [20],33%
same,Percentage G2/M,[10]; [20],35%
same,Percentage S,[10]; [20],32%
same,Percentage G0G1,[10]; [21],27%
same,Percentage G2/M,[10]; [21],38%
same,Percentage S,[10]; [21],35%
z-LEHD-fmk,etoposide-mediated cleavage of pro-caspase-9,"[13]; 2 hours preincubation with z-LEHD-fmk at varying doses, then 3 μM etoposide 16 hours, FIG. 18",inhibited by z-LEHD-fink in dose-dependent manner
same,cleavage of pro-caspase-3 and PARP,"[13]; 2 hours preincubation with z-LEHD-fmk, then 3 μM etoposide 16 hours, FIG. 18",significantly reduced
same,etoposide-induced 32 kDa DR5 band,[13]; [22],no longer detectable
same,etoposide-induced increase in the 58 kDa DR5 band,[13]; [22],significantly attenuated
O=P(O)(O)OC[C@H]1OC(O)[C@@H](O)[C@@H](O)[C@@H]1O (some centres unmarked) [M6P],uptake of sCD26 into monocytes,M6P/IGF-IIR on monocytes,inhibited the uptake of sCD26 into monocytes
